The values that follow come from patent US11191779B2, “Pharmaceutical composition for preventing or treating cancer, comprising tetraarsenic hexoxide crystalline polymorph” (CHEMAS CO., LTD., priority 2016, dated 2021).

SMILES strings stand for the structures. pIC50: −log10 of the molar value.

Assay [1] concerns human cervical cancer cell line SiHa. The experiment in a line: MTT cell proliferation assay, cervical cancer cell line SiHa. To be noted: treatment for 72 hours, read-out: Cancer cell growth inhibition (IC50). Type of assay: cell-based. An excerpt:
(§1) As human cancer cell lines, human lung cancer cell lines NCL-H226 and SK-MES-1, human esophageal cancer cell lines KYSE-150 and TE-1, human gastric cancer cell line AGS, human colorectal cancer cell lines HT29 and HCT116, human prostate cancer cell line PC-3, human pancreatic cancer cell lines BxPC-3 and PANC-1, human cervical cancer cell lines SiHa and HeLa, human ovarian cancer cell line SK-OV-3, and human endometrial cancer cell lines Ishikawa, HEC-1A, and HEC-1B were obtained from the Shanghai Cell Bank of Chinese Academy of Sciences. […]
(§2) The effects of Example 1 and Comparative Examples 1 to 3 on cell proliferation were assessed using MTT assay. […] All the crystals were completely dissolved by standing at room temperature for 15 minutes, and the absorbance was measured using a micro-plate reader at a wavelength of 570 nm (A570 nm).
(§3) The absorbance value of the control group treated without the sample was calculated as 100, and the absorbance value of the treatment group treated with the sample, compared with that of the control group, was calibrated, and the percentage of inhibition of cell proliferation was calculated according to the following equation. Percentage (%) of inhibition of cell proliferation=((mean absorbance of control group cells−mean absorbance of treatment group cells)/mean absorbance of control group cells)×100

The test system of assay [2] is human endometrial cancer cell line Ishikawa. The experiment in a line: MTT cell proliferation assay, endometrial cancer cell line Ishikawa. In kind it is cell-based. As to conditions: treatment for 72 hours, read-out: Cancer cell growth inhibition (IC50).
Text: as §1, §2, §3
For orientation: Formazan colour is commonly taken as a measure of viable cells.

Assay [3] relates to human colorectal cancer cell line HCT116. Description: MTT cell proliferation assay, colorectal cancer cell line HCT116. In kind it is cell-based.
Text: as §1, §2, §3

In assay [4] the test system is human esophageal cancer cell line TE-1. Description: MTT cell proliferation assay, esophageal cancer cell line TE-1. Type of assay: cell-based.
Text: as §1, §2, §3

The test system of assay [5] is various cancer cells, such as brain cancer, breast cancer, liver cancer, and skin cancer. Description: Proliferation of other cancer cells (data not shown). In kind it is cell-based.
Assay [6] relates to human colorectal cancer cell line HT29. Description: MTT cell proliferation assay, colorectal cancer cell line HT29. Type of assay: cell-based.
Text: as §1, §2, §3

Assay [7] has as its system human endometrial cancer cell line HEC-1B. Description: MTT cell proliferation assay, endometrial cancer cell line HEC-1B. Type of assay: cell-based. As to conditions: treatment for 72 hours, read-out: Cancer cell growth inhibition (IC50).
Text: as §1, §2, §3

The test system of assay [8] is human lung cancer cell line NCL-H226. The experiment in a line: MTT cell proliferation assay, lung cancer cell line NCL-H226. Type of assay: cell-based.
Text: as §1, §2, §3

In assay [9] the test system is human pancreatic cancer cell line PANC-1. Description: MTT cell proliferation assay, pancreatic cancer cell line PANC-1. In kind it is cell-based.
Text: as §1, §2, §3

The test system of assay [10] is human lung cancer cell line SK-MES-1. Description: MTT cell proliferation assay, lung cancer cell line SK-MES-1. Type of assay: cell-based.
Text: as §1, §2, §3

The subject of assay [11] is human gastric cancer cell line AGS. Description: MTT cell proliferation assay, gastric cancer cell line AGS. Type of assay: cell-based.
Text: As human cancer cell lines, human lung cancer cell lines NCL-H226 and SK-MES-1, human esophageal cancer cell lines KYSE-150 and TE-1, human gastric cancer cell line AGS, human colorectal cancer cell lines HT29 and HCT116, human prostate cancer cell line PC-3, human pancreatic cancer cell lines BxPC-3 and PANC-1, human cervical cancer cell lines SiHa and HeLa, human ovarian cancer cell line SK-OV-3, and human endometrial cancer cell lines Ishikawa, HEC-1A, and HEC-1B were obtained from the Shanghai Cell Bank of Chinese Academy of Sciences. The cells were incubated in media supplemented with 10% FBS, 50 U/ml penicillin, and 50 μg/ml streptomycin and suitable for incubation of respective cells (RPMI-1640 (NCL-H226, TE-1, BxPC-3, Ishikawa), MEM (SK-MES-1, SiHa, HeLa, HEC-1B), Ham's F-12K (AGS), Ham's F-12 (PC-3), McCOY's 5A (HT29, HCT116, SK-OV-3, HEC-1A), RPMI-1640:Ham's F-12=1:1(v:v) (KYSE-150), and DMEM (PANC-1)) in a humidified incubator with 5% CO2 and 95% air. The media were exchanged every three days.
The effects of Example 1 and Comparative Examples 1 to 3 on cell proliferation were assessed using MTT assay. MTT assay is based on the ability of viable cells against MTT to produce insoluble dark blue formazan products. […] All the crystals were completely dissolved by standing at room temperature for 15 minutes, and the absorbance was measured using a micro-plate reader at a wavelength of 570 nm (A570 nm).
as §3

Assay [12] concerns human prostate cancer cell line PC-3. Description: MTT cell proliferation assay, prostate cancer cell line PC-3. Type of assay: cell-based. To be noted: PC-3, treatment for 72 hours, read-out: Cancer cell growth inhibition (IC50).
Text: as §1, §2, §3

Assay [13] concerns human cervical cancer cell line HeLa. Description: MTT cell proliferation assay, cervical cancer cell line HeLa. Type of assay: cell-based. As to conditions: treatment for 72 hours, read-out: Cancer cell growth inhibition (IC50).
Text: as §1, §2, §3

For assay [14], the system named is human endometrial cancer cell line HEC-1A. Description: MTT cell proliferation assay, endometrial cancer cell line HEC-1A. Type of assay: cell-based. To be noted: treatment for 72 hours, read-out: Cancer cell growth inhibition (IC50).
Text: as §1, §2, §3

For assay [15], the system named is human pancreatic cancer cell line BxPC-3. The experiment in a line: MTT cell proliferation assay, pancreatic cancer cell line BxPC-3. Type of assay: cell-based.
Text: as §1, §2, §3

The subject of assay [16] is human ovarian cancer cell line SK-OV-3. The experiment in a line: MTT cell proliferation assay, ovarian cancer cell line SK-OV-3. In kind it is cell-based. To be noted: SK-OV-3, treatment for 72 hours, read-out: Cancer cell growth inhibition (IC50).
Text: as §1, §2, §3

Assay [17] concerns human esophageal cancer cell line KYSE-150. The experiment in a line: MTT cell proliferation assay, esophageal cancer cell line KYSE-150. In kind it is cell-based.
Text: as §1, §2, §3

In another assay the test system is cancer metastasis. As to conditions: animal experiments; cited from earlier work.
In assay [18] the test system is uterine cancer, bladder cancer, lung cancer, maxillary sinus cancer, kidney cancer. To be noted: end-stage cancer patients; cited from earlier work.

With `O1[As]2O[As]3O[As]1O[As](O2)O3` [Example 1, tetraarsenic hexoxide], the negative logarithm of the IC50 (pIC50) in [1] is 5.55; in assay [2], 5.56; in assay [3] (Colorectal cancer, HCT116, treatment for 72 hours, read-out: Cancer cell growth inhibition (IC50)), 5.29; in assay [4] (Esophageal cancer, TE-1, treatment for 72 hours, read-out: Cancer cell growth inhibition (IC50)), 5.63; in assay [6] (Colorectal cancer, HT29, treatment for 72 hours, read-out: Cancer cell growth inhibition (IC50)) it was 5.90; in assay [7], 5.34. Besides, the pIC50 in assay [8] (Lung cancer, NCL-H226, treatment for 72 hours, read-out: Cancer cell growth inhibition (IC50)) is 5.29; in assay [9] (Pancreatic cancer, PANC-1, treatment for 72 hours, read-out: Cancer cell growth inhibition (IC50)), 5.25; in assay [10] (Lung cancer, SK-MES-1, treatment for 72 hours, read-out: Cancer cell growth inhibition (IC50)), 5.61; in [11] (Gastric cancer, treatment for 72 hours, read-out: Cancer cell growth inhibition (IC50)), 6.05; in assay [12], 5.30; in assay [13], 5.79. Besides, the pIC50 was 5.61 in assay [14]; 5.30 in assay [15] (Pancreatic cancer, BxPC-3, treatment for 72 hours, read-out: Cancer cell growth inhibition (IC50)); 5.30 in assay [16]; 5.01 in assay [17] (Esophageal cancer, KYSE-150, treatment for 72 hours, read-out: Cancer cell growth inhibition (IC50)). Besides, the “percentage of inhibition of cell proliferation according to treatment time” value is “increased with the treatment time” in assay [3] (HCT116, 10 μM, 24, 48, 72 hours (FIG. 6A)); “increased with the treatment time” in assay [4] (TE-1, 10 μM, 24, 48, 72 hours (FIG. 4A)); “increased with the treatment time” in [6] (HT29, 10 μM, 24, 48, 72 hours (FIG. 6A)); “increased with the treatment time” in assay [8] (NCL-H226, 10 μM, 24, 48, 72 hours (FIG. 3)); “increased with the treatment time” in assay [10] (SK-MES-1, 10 μM, 24, 48, 72 hours (FIG. 3)); “significantly increased in the treatment for 72 hours” in [17] (KYSE-150, 10 μM, 24, 48, 72 hours (FIG. 4A)). Moreover, the “inhibition of proliferation of various cancer cells” value in assay [5] is “confirmed to inhibit the proliferation”. In addition, the “percentage of inhibition of cell proliferation according to concentration” value in assay [9] (PANC-1, different concentrations, 72 hours (FIG. 8B)) was “increased dependent on the concentration of Example 1”; in [15] (BxPC-3, different concentrations, 72 hours (FIG. 8B)), “increased dependent on the concentration of Example 1”. For the same compound, the “inhibition of cell proliferation according to treatment time and concentration” value in assay [11] (different concentrations, 24, 48, 72 hours (FIG. 5A)) is on record as “increased with the treatment time at each treatment concentration”. In addition, in assay [11] (treatment for 48 hours (FIG. 5A)), the “percentage of inhibition of gastric cancer cell proliferation at 48 hours” value was “high in spite of the treatment for only 48 hours”.
On to `O1[As]2O[As]3O[As]1O[As](O2)O3` [tetraarsenic hexoxide], for which, in the assay with cancer metastasis, the “cancer metastasis suppressing effects” value is given as “showed cancer metastasis suppressing effects”. Also, the anticancer treatment effects result in assay [18] is given as “had excellent anticancer treatment effects”.

A word on the pIC50: it is the negative decadic logarithm of the IC50, by convention in mol/L.
